According to ChEMBL document CHEMBL4627394, “A Grand Challenge. 3. Unbiased Phenotypic Function of Metabolites from Australia Plants Gloriosa superba and Alangium villosum against Parkinson's Disease” (J Nat Prod, 2020):
Calls of active or inactive are those of the source. The rule behind the calls is not given here.

How the values were obtained:
[1] = Cytotoxicity against Parkinson's disease patient derived human ONS cells assessed as effect on nucleus morphology parameters at 10 uM after 24 hrs by DAPI staining based fluorescence assay
[2] = Cytotoxicity against Parkinson's disease patient derived human ONS cells assessed as effect on cell morphology parameters at 10 uM after 24 hrs by DAPI staining based fluorescence assay
[3] = species: Homo sapiens; assay: Effect on early endosome parameters in Parkinson's disease patient derived human ONS cells at 10 uM after 24 hrs by EEA1 staining based fluorescence assay; assay type: functional

Row | Structure (SMILES) | Activity [1] | Activity [2] | Activity [3]
1 | COC1=C[C@@H]2C3=C([C@@H]2C1=O)[C@@H](NC(C)=O)CCc1cc(OC)c(O)c(OC)c13 | Non-Toxic | Non-Toxic | –
2 | COC1=C[C@@H]2C3=C([C@@H]2C1=O)[C@@H](NC(C)=O)CCc1cc(OC)c(O[C@@H]2O[C@H](CO)[C@@H](O)[C@H](O)[C@H]2O)c(OC)c13 | Non-Toxic | Non-Toxic | –
3 | CC[C@H]1CN2CCc3cc(OC)c(OC)cc3[C@@H]2C[C@@H]1C[C@@H]1NCCc2c1[nH]c1ccc(O)cc21.O=C(O)C(F)(F)F.O=C(O)C(F)(F)F | Non-Toxic | Non-Toxic | Active
4 | CC[C@H]1C[N@+]2(O)CCc3cc(OC)c(OC)cc3[C@@H]2C[C@@H]1C[C@@H]1NCCc2c1[nH]c1ccc(O)cc21.O=C(O)C(F)(F)F.O=C([O-])C(F)(F)F | Non-Toxic | Non-Toxic | Active
5 | COc1cc2c(c(OC)c1O)-c1ccc(OC)c(=O)cc1[C@@H](NC=O)CC2 | Non-Toxic | Non-Toxic | –
6 | CC[C@H]1C[N@@+]2(O)CCc3cc(OC)c(OC)cc3[C@@H]2C[C@@H]1C[C@H]1NCCc2c1[nH]c1ccc(O)cc21.O=C(O)C(F)(F)F.O=C([O-])C(F)(F)F | Non-Toxic | Non-Toxic | Active
7 | CC[C@H]1C[N@+]2(O)CCc3cc(O)c(OC)cc3[C@@H]2C[C@@H]1C[C@@H]1NCCc2c1[nH]c1ccc(O)cc21.O=C(O)C(F)(F)F.O=C([O-])C(F)(F)F | Non-Toxic | Non-Toxic | Active
8 | COC1=C[C@H]2C3=C([C@H]2C1=O)[C@@H](NC(C)=O)CCc1cc(OC)c(O[C@@H]2O[C@H](CO)[C@@H](O)[C@H](O)[C@H]2O)c(OC)c13 | Non-Toxic | Non-Toxic | –
9 | COc1cc2c(c(OC)c1OC)-c1ccc(OC)c(=O)cc1[C@@H](NC=O)CC2 | Non-Toxic | Non-Toxic | –
10 | COC1=C[C@@H]2C3=C([C@@H]2C1=O)[C@@H](NC(C)=O)CCc1cc(OC)c(OC)c(OC)c13 | Non-Toxic | Non-Toxic | –
11 | CC[C@H]1CN2CCc3cc(O)c(OC)cc3[C@@H]2C[C@@H]1C[C@@H]1NCCc2c1[nH]c1ccc(O)cc21.O=C(O)C(F)(F)F.O=C(O)C(F)(F)F | Non-Toxic | Non-Toxic | Active
12 | COC1=C[C@@H]2C3=C([C@@H]2C1=O)[C@@H](NC=O)CCc1cc(OC)c(OC)c(OC)c13 | Non-Toxic | Non-Toxic | –
13 | COC1=C[C@@H]2C3=C([C@@H]2C1=O)[C@@H](NC=O)CCc1cc(OC)c(O[C@@H]2O[C@H](CO)[C@@H](O)[C@H](O)[C@H]2O)c(OC)c13 | Non-Toxic | Non-Toxic | –
14 | CC[C@H]1CN2CCc3cc(O)c(OC)cc3[C@@H]2C[C@@H]1C[C@H]1NCCc2c1[nH]c1ccc(O)cc21.O=C(O)C(F)(F)F.O=C(O)C(F)(F)F | Non-Toxic | Non-Toxic | Active
15 | COC1=C[C@@H]2C3=C([C@@H]2C1=O)[C@@H](NC(C)=O)CCc1cc(O[C@@H]2O[C@H](CO)[C@@H](O)[C@H](O)[C@H]2O)c(O)c(OC)c13 | Non-Toxic | Non-Toxic | –
16 | CC[C@H]1CN2CCc3cc(OC)c(OC)cc3[C@@H]2C[C@@H]1C[C@H]1NCCc2c1[nH]c1ccc(O)cc21.O=C(O)C(F)(F)F.O=C(O)C(F)(F)F | Non-Toxic | Non-Toxic | Active
17 | COc1c2c(cc3c1-c1ccc(OC)c(=O)cc1[C@@H](NC(C)=O)CC3)OCO2 | Non-Toxic | Non-Toxic | –
18 | COc1cc2c(c(OC)c1OC)-c1ccc(OC)c(=O)cc1[C@@H](NC(C)=O)CC2 [COLCHICINE] | Non-Toxic | Non-Toxic | –
19 | COc1cc2c(c(OC)c1O)-c1ccc(OC)c(=O)cc1[C@@H](NC(C)=O)CC2 [2-DESMETHYLCOLCHICIN] | Non-Toxic | Non-Toxic | –
20 | CC[C@H]1CN2CCc3cc(O)c(OC)cc3[C@@H]2C[C@@H]1C[C@H]1NCCc2c1[nH]c1ccccc21.O=C(O)C(F)(F)F.O=C(O)C(F)(F)F | Non-Toxic | Non-Toxic | Active
21 | CC[C@H]1C[N@@+]2(O)CCc3cc(O)c(OC)cc3[C@@H]2C[C@@H]1C[C@H]1NCCc2c1[nH]c1ccc(O)cc21.O=C(O)C(F)(F)F.O=C([O-])C(F)(F)F | Non-Toxic | Non-Toxic | Active
22 | COC1=C[C@@H]2C3=C([C@@H]2C1=O)[C@@H](NC=O)CCc1cc(OC)c(O)c(OC)c13 | Non-Toxic | Non-Toxic | –
